Data reported in article PMC6321168, “Comparative Study on Excretive Characterization of Main Components in Herb Pair Notoginseng-Safflower and Single Herbs by LC–MS/MS” (Pharmaceutics, 2018).

Experiment: Fecal excretion study in rats after oral NS, SF or CNS (LC–MS/MS)
Assay type: in vivo
Settings: rat feces
Procedure: The animal room was set at constant temperature of 20 ± 2 °C with humidity of 50 ± 20% and 12/12 h light/dark cycle.
Eighteen male rats were fasted for 12 h before starting the experiment. The rats were divided into three groups at random (n = 6) and received NS (60 mg/kg), SF (50 mg/kg), and NS (60 mg/kg) + SF (50 mg/kg), respectively, by oral gavage. The rats were placed in separate metabolic cages. The urine samples were collected at 0–2, 2–4, 4–6, 6–8, 8–12, 12–24, 24–36, 36–48, 48–72, 72–96, and 96–120 h. The feces samples were collected at 0–4, 4–8, 8–12, 12–24, 24–36, 36–48, 48–72, 72–96, and 96–120 h. The urine volume was recorded and the dry feces were measured for each collection period. Samples were stored at −80 °C until analysis.
Feces samples were homogenized in ultrapure water (1 g/15 mL), soaked for 30 min, ultrasonically extracted for 30 min and centrifuged at 9000 rpm for 8 min. An aliquot of 200 μL feces water extraction solution was mixed with 10 μL of IS and then extracted three times with water-saturated n-BuOH (150 μL). The upper organic phase was combined and evaporated to dryness using a ZLS-2 vacuum centrifugal concentrator. The residue was treated as the urine sample and a 1-μL aliquot was injected for LC–MS analysis.
Ultra fast liquid chromatography (UFLC) analysis was performed using a Shimadzu UFLC system (DGU-20A3R Degasser; LC-20AD pump; SIL-20AXR Autosampler; CTO-20AC Column Oven) (Nakagyo-Ku, Koyoto, Japan). […] Because of the different endogenous substances in the urine and feces samples, different elution gradients were used to alleviate the matrix effects for the analytes.
The mass spectrometric detection was performed on an ABSciex 4500 Qtrap mass spectrometer (ABSciex, Foster City, CA, USA) equipped with a negative electrospray ionization (ESI) interface using multiple reaction monitoring (MRM). The MS parameters were optimized under the selected ion monitoring conditions as follows: curtain gas, 35 psi; ionspray voltage, 4500 V; turbo gas temperature, 450 °C; GS1, 45 psi; GS2, 45 psi. All data were acquired and analyzed by Analyst software (Versions 1.6.2) from ABSciex.
The accumulative excretion percentage was calculated for each analyte as follows. Excretion at time (t) = [concentration of the analyte (ng/mL) at t] × total urine (or feces) volume (mL) at t. The cumulative excretion up to time t (mg) was expressed as a percent (%) cumulative excretion by dividing by the total amount of the analyte ingested (mg): % Cumulative Excretion = 100 × (Σt excretiont) total ingested.

`CC(C)=CCC[C@](C)(O[C@@H]1O[C@H](CO[C@@H]2O[C@H](CO)[C@@H](O)[C@H](O)[C@H]2O)[C@@H](O)[C@H](O)[C@H]1O)[C@H]1CC[C@]2(C)[C@@H]1[C@H](O)C[C@@H]1[C@@]3(C)CC[C@H](O[C@@H]4O[C@H](CO)[C@@H](O)[C@H](O)[C@H]4O[C@@H]4O[C@H](CO)[C@@H](O)[C@H](O)[C@H]4O)C(C)(C)[C@@H]3CC[C@]12C` [ginsenoside Rb1] gave a concentration at 4 h (male, Sprague Dawley, oral CNS 110 mg/kg, 4 h) of 555 ± 763 ng/mL, a concentration at 8 h (male, Sprague Dawley, oral CNS 110 mg/kg, 8 h) of 1080 ± 431 ng/mL and a concentration at 12 h (male, Sprague Dawley, oral CNS 110 mg/kg, 12 h) of 899 ± 96 ng/mL. For the same compound, the concentration at 24 h (male, Sprague Dawley, oral CNS 110 mg/kg, 24 h) was 802 ± 25 ng/mL, the concentration at 36 h (male, Sprague Dawley, oral CNS 110 mg/kg, 36 h) was 548 ± 36 ng/mL and the concentration at 48 h (male, Sprague Dawley, oral CNS 110 mg/kg, 48 h) was 552 ± 30 ng/mL. It also gave a concentration at 72 h (male, Sprague Dawley, oral CNS 110 mg/kg, 72 h) of 455 ± 377 ng/mL, a concentration at 96 h (male, Sprague Dawley, oral CNS 110 mg/kg, 96 h) of 21 ± 20 ng/mL and a concentration at 4 h (male, Sprague Dawley, oral NS 60 mg/kg, 4 h) of 1080 ± 156 ng/mL. For the same compound, the concentration at 8 h (male, Sprague Dawley, oral NS 60 mg/kg, 8 h) was 767 ± 29 ng/mL, the concentration at 12 h (male, Sprague Dawley, oral NS 60 mg/kg, 12 h) was 2060 ± 137 ng/mL and the concentration at 24 h (male, Sprague Dawley, oral NS 60 mg/kg, 24 h) was 2180 ± 90 ng/mL. The concentration at 36 h (male, Sprague Dawley, oral NS 60 mg/kg, 36 h) was 920 ± 48 ng/mL, the concentration at 48 h (male, Sprague Dawley, oral NS 60 mg/kg, 48 h) was 1020 ± 52 ng/mL and the concentration at 72 h (male, Sprague Dawley, oral NS 60 mg/kg, 72 h) was 120 ± 9 ng/mL. For the same compound, the concentration at 96 h (male, Sprague Dawley, oral NS 60 mg/kg, 96 h) was 19 ± 4 ng/mL, the concentration at 120 h (male, Sprague Dawley, oral NS 60 mg/kg, 120 h) was 17 ± 3 ng/mL and the Accumulative excretion amount (oral CNS 110 mg/kg, 4 h) was 7.072 ± 10.199 µg. For the same compound, the Accumulative excretion percentage (oral CNS 110 mg/kg, 4 h) was 0.192±0.275%, the Excretion amount (oral CNS 110 mg/kg, 4 h) was 7.072 ± 10.199 µg and the Accumulative excretion amount (oral CNS 110 mg/kg, 8 h) was 22.570 ± 15.790 µg. For the same compound, the Accumulative excretion percentage (oral CNS 110 mg/kg, 8 h) was 0.607±0.426%, the Excretion amount (oral CNS 110 mg/kg, 8 h) was 15.499 ± 6.228 µg and the Accumulative excretion amount (oral CNS 110 mg/kg, 12 h) was 36.062 ± 14.935 µg. The Accumulative excretion percentage (oral CNS 110 mg/kg, 12 h) was 0.968±0.409%, the Excretion amount (oral CNS 110 mg/kg, 12 h) was 13.492 ± 4.335 µg and the Accumulative excretion amount (oral CNS 110 mg/kg, 24 h) was 48.081 ± 16.475 µg. For the same compound, the Accumulative excretion percentage (oral CNS 110 mg/kg, 24 h) was 1.282±0.443%, the Excretion amount (oral CNS 110 mg/kg, 24 h) was 12.018 ± 3.497 µg and the Accumulative excretion amount (oral CNS 110 mg/kg, 36 h) was 56.222 ± 17.772 µg. For the same compound, the Accumulative excretion percentage (oral CNS 110 mg/kg, 36 h) was 1.501±0.476%, the Excretion amount (oral CNS 110 mg/kg, 36 h) was 8.141 ± 2.259 µg and the Accumulative excretion amount (oral CNS 110 mg/kg, 48 h) was 64.538 ± 19.434 µg. It also gave an Accumulative excretion percentage (oral CNS 110 mg/kg, 48 h) of 1.723±0.522%, an Excretion amount (oral CNS 110 mg/kg, 48 h) of 8.316 ± 2.614 µg and an Accumulative excretion amount (oral CNS 110 mg/kg, 72 h) of 71.863 ± 19.005 µg. For the same compound, the Accumulative excretion percentage (oral CNS 110 mg/kg, 72 h) was 1.923±0.515%, the Excretion amount (oral CNS 110 mg/kg, 72 h) was 7.325 ± 6.432 µg and the Accumulative excretion amount (oral CNS 110 mg/kg, 96 h) was 72.213 ± 19.048 µg. It also gave an Accumulative excretion percentage (oral CNS 110 mg/kg, 96 h) of 1.931±0.512%, an Excretion amount (oral CNS 110 mg/kg, 96 h) of 0.350 ± 0.350 µg and an Accumulative excretion amount (oral CNS 110 mg/kg, 120 h) of 72.213 ± 19.048 µg. The Accumulative excretion percentage (oral CNS 110 mg/kg, 120 h) was 1.931±0.513%, the Accumulative excretion amount (oral NS 60 mg/kg, 4 h) was 15.357 ± 4.697 µg and the Accumulative excretion percentage (oral NS 60 mg/kg, 4 h) was 0.361±0.113%. The Excretion amount (oral NS 60 mg/kg, 4 h) was 15.357 ± 4.697 µg, the Accumulative excretion amount (oral NS 60 mg/kg, 8 h) was 26.423 ± 8.057 µg and the Accumulative excretion percentage (oral NS 60 mg/kg, 8 h) was 0.624±0.192%. It also gave an Excretion amount (oral NS 60 mg/kg, 8 h) of 11.066 ± 3.551 µg, an Accumulative excretion amount (oral NS 60 mg/kg, 12 h) of 56.148 ± 17.467 µg and an Accumulative excretion percentage (oral NS 60 mg/kg, 12 h) of 1.312±0.411%. It also gave an Excretion amount (oral NS 60 mg/kg, 12 h) of 29.724 ± 9.595 µg, an Accumulative excretion amount (oral NS 60 mg/kg, 24 h) of 87.371 ± 26.505 µg and an Accumulative excretion percentage (oral NS 60 mg/kg, 24 h) of 2.043±0.622%. It also gave an Excretion amount (oral NS 60 mg/kg, 24 h) of 31.223 ± 9.132 µg, an Accumulative excretion amount (oral NS 60 mg/kg, 36 h) of 100.721 ± 31.049 µg and an Accumulative excretion percentage (oral NS 60 mg/kg, 36 h) of 2.354±0.725%. The Excretion amount (oral NS 60 mg/kg, 36 h) was 13.350 ± 4.715 µg, the Accumulative excretion amount (oral NS 60 mg/kg, 48 h) was 115.527 ± 36.105 µg and the Excretion amount (oral NS 60 mg/kg, 48 h) was 14.806 ± 5.076 µg. It also gave an Accumulative excretion amount (oral NS 60 mg/kg, 72 h) of 117.237 ± 36.600 µg, an Accumulative excretion percentage (oral NS 60 mg/kg, 72 h) of 2.731±0.854% and an Excretion amount (oral NS 60 mg/kg, 72 h) of 1.710 ± 0.525 µg. For the same compound, the Accumulative excretion amount (oral NS 60 mg/kg, 96 h) was 117.502 ± 36.686 µg, the Accumulative excretion percentage (oral NS 60 mg/kg, 96 h) was 2.741±0.854% and the Excretion amount (oral NS 60 mg/kg, 96 h) was 0.264 ± 0.103 µg. The Accumulative excretion amount (oral NS 60 mg/kg, 120 h) was 117.753 ± 36.774 µg, the Accumulative excretion percentage (oral NS 60 mg/kg, 120 h) was 2.745±0.858% and the Excretion amount (oral NS 60 mg/kg, 120 h) was 0.252 ± 0.100 µg.
